How the values were obtained:
[1] = cited from earlier work
male Wister rats [2] = experiment: Adduction/pronation of the left upper limb after middle cerebral artery ischemia-reperfusion; type: in vivo, rat; settings: for Adduction/pronation, during ischemia (rats affected/total): baseline before melatonin administration
Description: (§1) Eight to ten-week-old male Wister rats weighing of 250 to 300 g were used. Under halothane anesthesia, a 24 G (24 gauge) plug was inserted from a right external carotid artery of each rat so as to arrive to a starting site of its middle cerebral artery of the circle of Willis through its internal carotid artery. Immediately, the anesthesia was stopped, and the rat was dehypnotized. It was confirmed that the rat rotated clockwise, had ischemia, and had paralysis of its left upper limb. After one hour, the plug was removed from the rat under halothane anesthesia, and the blood flow was thereby reperfused. In the melatonin administration group, 1 ml of a physiological saline solution containing 6 mg/kg of melatonin was injected using a probe into the stomach of each rat each day for 10 days starting 24 hours after the reperfusion. In the control group, 1 ml of a physiological saline solution was similarly injected into each rat. After 19 days, the presence of adduction/pronation of the left upper limb and the clockwise rotation were determined for each rat. To assess the adduction/pronation of the left upper limb, each rat was hung via its tail, and the movement of the left upper limb was observed. If the rat could not voluntarily move the left upper limb, and had paralysis of the left upper limb, the left upper limb was considered to show adduction/pronation. In an experiment similar to that as described in Example 1, the adduction/pronation of the left upper limb and the clockwise rotation were determined 11 days after the ischemic incidence.

male Wister rats [3] = experiment: Clockwise rotation after middle cerebral artery ischemia-reperfusion; type: in vivo, rat; settings: for Clockwise rotation, during ischemia (rats affected/total): baseline before melatonin administration
Description: as §1, with “clockwise rotation,” for “adduction/pronation of the left upper limb,”, “placed on a round plate 2 m in diameter for 5 minutes.” for “hung via its tail, and the movement of the left upper limb was observed.”, “rat” for “rat could not voluntarily move the left upper limb, and”, “it rotated clockwise.” for “the left upper limb was considered to show adduction/pronation.”

male Wister rats [4] = experiment: Area of the cerebral infarcted lesion; type: in vivo, rat; settings: Example 3; rats of Example 2, after 11 days; section showing maximum lesion
Procedure: Using the rats from the experiment of Example 2, the area of the cerebral infarcted lesion in each rat after 11 days was determined. The area of the cerebral infarcted lesion was determined by preparing a consecutive section of 50 μm from a cerebral infarcted region of about 3 mm and subjecting the section showing a maximum lesion to the NIH measurement program to determine the area of the maximum lesion.

CAl hippocampal neurons = settings: intraperitoneally administered, especially prior to cerebral ischemia or during reperfusion; cited from earlier work
[5] = Example 1, 6 mg/kg into the stomach each day for 10 days starting 24 hours after reperfusion
[6] = Example 2, experiment similar to Example 1

COc1ccc2[nH]cc(CCNC(C)=O)c2c1 [Melatonin, N-[2-(5-methoxy-1H-indol-3-yl)ethyl]acetamide]
passage into the brain ([1]; intravenously administered): pass into the brain | passage through the blood-brain barrier ([1]; orally administered): passes through the blood-brain barrier | Adduction/pronation, 19 days after ischemia (rats affected/total) (male Wister rats [2]; [5]): 1/4 | Adduction/pronation, during ischemia (rats affected/total) (male Wister rats [2]; Example 1): 4/4 | Adduction/pronation, during ischemia (rats affected/total) (male Wister rats [2]; Example 2): 7/7 | Adduction/pronation, 11 days after ischemia (rats affected/total) (male Wister rats [2]; [6]): 3/7 | Clockwise rotation, 19 days after ischemia (rats affected/total) (male Wister rats [3]; [5]): 1/4 | Clockwise rotation, during ischemia (rats affected/total) (male Wister rats [3]; Example 1): 4/4 | Clockwise rotation, during ischemia (rats affected/total) (male Wister rats [3]; Example 2): 7/7 | Clockwise rotation, 11 days after ischemia (rats affected/total) (male Wister rats [3]; [6]): 0/7 | Area of the infarcted lesion, cerebral cortex (male Wister rats [4]): 5.47 mm^2 | Area of the infarcted lesion, striatum (male Wister rats [4]): 7.15 mm^2 | protection of CAl hippocampal neurons against ischemic injury (CAl hippocampal neurons): protects CAl hippocampal neurons against ischemic injury
